Experimental data: patent US4550186A, “Binuclear copper (II) carboxylates formed from amine-carboxyboranes” (Duke University, priority 1983, dated 1985)

Tests used:
[1] = Relative solubilities in solvents; type: physicochemical
Source text: Solvents in which ligand exchange reactions or initial formation of the complex may take place depend on the structure of the amine portion of the complex and on the ligand being introduced as is well understood by those skilled in the art. Typical solvents which may be used include water and polar organic solvents, such as methanol and pyridine. Typical of solubilities are the following relative solubilities of {Cu[(Me3 NBH2 COO)2.Me3 NBH2 CO2 H]}2 : […]

[2] = biological target: T1, Fatty Acid Synthetase (Mus musculus, UniProt P19096); test: In vitro liver enzyme study: fatty acid synthetase; type: biochemical; settings: in vitro CF1 liver
T1 construct: 10% homogenates of CF1 male mouse liver; from tissue; host or cells: CF1 male mouse liver, 10% homogenate
Experimental: In vitro enzymatic studies were determined using 10% homogenates of CF1 male mouse liver with 50-200 μM of test drugs. In vivo enzymatic studies were determined using 10% homogenates of liver from CF1 male mice obtained after administering the agents for 16 days at a dose ranging from 2.5-20 mg/kg/day intraperitoneally. The liver homogenates for both in vitro and in vivo studies were prepared in 0.25M sucrose and 0.001M (ethylenedinitrilo)tetraacetic acid. Acetyl coenzyme A synthetase and adenosine triphosphate dependent citrate lyase activities were determined spectrophotometrically at 540 nm as the hydroxylamate of acetyl coenzyme A formed after 30 min at 37° C. Mitochondrial citrate exchange was determined by the procedure of Robinson et al [Eur. J. Biochem., 216, 63 (1970)] using ^14 C-sodium bicarbonate (41 mCi/mmol) incorporated into mitochondrial ^14 C-citrate after isolating rat mitochondria (9000 g×10 min) from the homogenates. The exchanges of the ^14 C-citrate were determined after incubating the mitochondrial fraction which was loaded with labeled citrate and test drugs for 10 min. Then the radioactivity was measured in the mitochondrial and supernantant fractions in scintillation fluid and expressed as a percentage. Cholesterol side chain oxidation was determined by the method of Kritchevsky and Tepper [Artherosclerosis, 18, 93 (1973)] using (26-^14 C) cholesterol (50 mCi/mmol) and mitochondria isolated from rat liver homogenates. […] Fatty acid synthetase activity was determined by the method of Brady et al [J. Biol. Chem., 235, 3093 (1960)] using [2-^14 C] malonyl-coenzyme A (37.5 mCi/mmol) which was incorporated into newly synthesized fatty acids that were extracted with ether and counted. Acyl transferase activity was determined with glycerol-3phosphate [L-2-^3 H(N)] […] HCl and counted. Phosphatidate phosphohydrolase activity was measured as the inorganic phosphate released after 30 min from phosphatidic acid by the method of Mavis et al [J. Lipid Res., 19, 467 (1978)]. […]

T1 sequence (P19096 whole entry): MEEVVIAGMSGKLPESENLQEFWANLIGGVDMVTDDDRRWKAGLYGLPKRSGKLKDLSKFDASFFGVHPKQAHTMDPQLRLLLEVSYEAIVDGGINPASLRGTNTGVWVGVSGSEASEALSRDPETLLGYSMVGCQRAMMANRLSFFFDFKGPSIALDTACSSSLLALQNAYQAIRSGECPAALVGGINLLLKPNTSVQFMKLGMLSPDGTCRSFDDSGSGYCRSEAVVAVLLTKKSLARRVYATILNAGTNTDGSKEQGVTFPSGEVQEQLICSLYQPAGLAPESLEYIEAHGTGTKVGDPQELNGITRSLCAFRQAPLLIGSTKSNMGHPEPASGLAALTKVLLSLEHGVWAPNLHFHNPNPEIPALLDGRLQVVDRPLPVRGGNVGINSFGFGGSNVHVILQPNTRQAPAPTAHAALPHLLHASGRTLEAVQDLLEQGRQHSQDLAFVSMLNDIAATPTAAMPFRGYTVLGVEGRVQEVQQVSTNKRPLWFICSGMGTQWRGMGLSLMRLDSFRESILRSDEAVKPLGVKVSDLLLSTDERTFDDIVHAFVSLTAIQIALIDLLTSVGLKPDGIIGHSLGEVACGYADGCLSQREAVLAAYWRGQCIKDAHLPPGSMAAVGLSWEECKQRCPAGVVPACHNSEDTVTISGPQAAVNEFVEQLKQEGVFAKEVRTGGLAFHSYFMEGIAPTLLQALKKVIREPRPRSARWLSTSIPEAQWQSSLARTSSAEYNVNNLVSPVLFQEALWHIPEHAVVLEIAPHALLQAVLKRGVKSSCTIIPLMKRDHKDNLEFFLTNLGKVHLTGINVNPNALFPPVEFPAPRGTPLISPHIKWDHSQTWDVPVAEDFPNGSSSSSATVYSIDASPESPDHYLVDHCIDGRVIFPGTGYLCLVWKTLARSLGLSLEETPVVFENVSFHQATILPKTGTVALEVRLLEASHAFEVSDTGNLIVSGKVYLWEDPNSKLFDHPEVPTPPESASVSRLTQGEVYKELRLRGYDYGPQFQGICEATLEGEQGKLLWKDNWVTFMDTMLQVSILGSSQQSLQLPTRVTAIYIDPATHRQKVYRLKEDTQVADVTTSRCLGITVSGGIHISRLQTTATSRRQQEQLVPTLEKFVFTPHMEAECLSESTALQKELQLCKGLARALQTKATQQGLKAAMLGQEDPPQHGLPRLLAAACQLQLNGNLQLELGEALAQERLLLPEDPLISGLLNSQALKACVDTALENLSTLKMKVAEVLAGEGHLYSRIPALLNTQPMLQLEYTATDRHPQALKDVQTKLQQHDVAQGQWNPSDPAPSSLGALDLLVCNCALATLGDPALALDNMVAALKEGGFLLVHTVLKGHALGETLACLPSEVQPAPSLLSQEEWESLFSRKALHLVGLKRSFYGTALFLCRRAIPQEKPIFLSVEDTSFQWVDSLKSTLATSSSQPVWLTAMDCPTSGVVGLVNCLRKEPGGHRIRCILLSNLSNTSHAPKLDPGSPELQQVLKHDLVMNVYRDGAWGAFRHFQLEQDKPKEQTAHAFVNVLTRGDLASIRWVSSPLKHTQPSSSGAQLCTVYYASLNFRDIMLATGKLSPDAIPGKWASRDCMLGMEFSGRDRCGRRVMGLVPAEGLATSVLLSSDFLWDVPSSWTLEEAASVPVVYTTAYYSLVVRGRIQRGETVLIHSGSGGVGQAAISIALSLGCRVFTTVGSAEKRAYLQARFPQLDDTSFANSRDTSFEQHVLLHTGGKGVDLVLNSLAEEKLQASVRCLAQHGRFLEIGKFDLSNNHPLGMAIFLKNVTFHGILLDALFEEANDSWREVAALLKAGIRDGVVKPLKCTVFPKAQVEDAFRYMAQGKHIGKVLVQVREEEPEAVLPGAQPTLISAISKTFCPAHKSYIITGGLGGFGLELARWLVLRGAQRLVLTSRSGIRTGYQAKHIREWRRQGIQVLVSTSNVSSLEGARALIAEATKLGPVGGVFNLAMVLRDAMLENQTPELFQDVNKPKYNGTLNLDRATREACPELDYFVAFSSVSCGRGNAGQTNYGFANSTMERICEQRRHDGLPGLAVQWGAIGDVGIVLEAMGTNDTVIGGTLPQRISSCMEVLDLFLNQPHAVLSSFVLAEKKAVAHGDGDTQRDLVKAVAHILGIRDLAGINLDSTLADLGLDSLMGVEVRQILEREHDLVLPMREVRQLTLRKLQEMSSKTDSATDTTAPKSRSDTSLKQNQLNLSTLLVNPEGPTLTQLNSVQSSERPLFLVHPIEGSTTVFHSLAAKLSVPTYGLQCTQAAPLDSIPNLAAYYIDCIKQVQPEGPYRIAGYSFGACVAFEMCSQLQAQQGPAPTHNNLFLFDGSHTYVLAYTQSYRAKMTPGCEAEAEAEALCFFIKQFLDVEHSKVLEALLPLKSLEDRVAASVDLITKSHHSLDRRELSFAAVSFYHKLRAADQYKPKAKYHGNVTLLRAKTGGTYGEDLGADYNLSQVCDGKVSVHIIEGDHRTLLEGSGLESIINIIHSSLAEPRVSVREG

{Cu[(CH3)3 N.BH2 CO2 ]2.(CH3)3 N.BH2 COOH} [Compound I]
Solubility ([1]; 2-Chloro-2-methylpropane): insoluble | Solubility ([1]; Acetic Acid): moderately soluble | Solubility ([1]; Acetone): insoluble | Solubility ([1]; Acetonitrile): moderately soluble | Solubility ([1]; Benzene): insoluble | Solubility ([1]; Chloroform): insoluble | Solubility ([1]; Diethyl ether): insoluble | Solubility ([1]; Dimethyl sulfoxide): moderately soluble | Solubility ([1]; Ethanol): very slightly soluble | Solubility ([1]; Ethyl Acetate): insoluble | Solubility ([1]; Isopropanol): insoluble | Solubility ([1]; Isopropyl ether): insoluble | Solubility ([1]; Methanol): moderately soluble | Solubility ([1]; Methylene chloride): slightly soluble | Solubility ([1]; Pentane): insoluble | Solubility ([1]; Pyridine): moderately soluble | Solubility ([1]; Tetrahydrofuran): insoluble | Solubility ([1]; Water): very soluble | Fatty Acid Synthetase ([2]; 50 μM): 86 ± 7 Percent Control | Fatty Acid Synthetase ([2]; 100 μM): 96 ± 8 Percent Control | Fatty Acid Synthetase ([2]; 200 μM): 87 ± 7 Percent Control
